The source of these data is patent publication US8304393B2, “Epithelial cell growth promoter” (Patent Technology Development Inc., priority 2004, dated 2012).

Molecules are shown by their SMILES. Some results are limits rather than exact numbers.

One assay has as its system C3H/He female mice. Description: Hair regrowth on shaved dorsal skin of telogen-phase mice (Example 6). The class given is in vivo. Conditions: 1 mg/ml, 100 μl/mouse once a day topical, 14th day after application. How it is done: A 1 mg portion of the pentapeptide obtained in Example 3 was dissolved in 300 μl of water for injection (product code “057-00456”, a product by Otsuka Pharmaceutical Co.), to which 200 μl of propylene glycol (product code “161-05006”, a product by Wako Pure Chemical Industries) and 500 μl of ethyl alcohol (product code “057-00456”, a product by Wako Pure Chemical Industries) were then added and they were mixed together to prepare an epithelial cell growth promoter in a concentration of 1 mg/ml.
Ten 7-week-old C3H/He female mice were raised for acclimatization for 1 week, and the hair on the dorsal of each mouse in the telogen phase of a hair cycle was shaved with an electric clipper and an electric shaver to prepare experimental animals.
Next, these experimental animals were divided into two groups each containing five mice. The epithelial cell growth promoter was applied at 100 μl/mouse once a day to the shaved area of the first group from the 3rd day after shaving on, while only a mixture of water for injection, propylene glycol, and ethyl alcohol (3:2:5 by volume) was applied as a control to the second group.
Next, these images were computer-processed to calculate with image analysis software the ratio of the hair-regrowth area (the number of pixels of hair-regrowth area/the number of pixels of shaved area) as percentages. […]

Another assay has as its system HBKs. Description: HBK growth test (Example 7, AlamarBlue). The class given is cell-based, C3H/HeN mouse. Conditions: for effect on the HBK growth as compared with that of the control: 4 days culture. The text has this:
(§1) To confirm the cell selectivity of the oligopeptide obtained in Example 3 as an epithelial cell growth promoter, the presence or absence of the cell growth-promoting effect on cells existing in skin tissues, that is, HBKs, epidermal cells, dermal fibroblasts, and hair papilla cells, was examined in the following manner. Incidentally, the same culture medium and test medium as in Example 5 were used.
(§2) The skin of a 5 day-old C3H/HeN mouse was aseptically collected and cut with a surgical knife into samples of strips of approximately 2-mm-wide skin slices. The above-mentioned samples were immersed in a solution prepared by dissolving 500 U/ml of dispase (lot No. 0101, a product by GODO SHUSEI CO.) in DMEM (product code “D-5523”, a product by Sigma) containing 5% by mass of FBS (lot No. 0101, a product by Cansera International Inc.), and then kept standing at 4° C. for 16 hours. Subsequently, epidermis tissues were ablated with tweezers from the skin slices and separated from dermis tissues. The thus obtained epidermis tissues were subjected to the separation of epidermal cells, and the dermis tissues were subjected to the separation of HBKs and dermal fibroblasts.
The thus obtained dermis tissues were immersed in PBS (−) (product code “P-4417”, a product by Sigma) and cut into strips with opthalmological scissors. The strips were immersed into a solution prepared by dissolving 0.2% by mass of collagenase (lot No. 001014W, a product by Nitta Gelatin Inc.) in DMEM containing 5% by mass of FBS, and then digested at 37° C. for 1 hour. The thus obtained dermis digestion solution was centrifuged at 1000 rpm for 5 minutes. The supernatant was removed, and the residue was supplemented with PBS (−) and gently pipetted to prepare a dermis suspension.
For separating dermal fibroblasts and hair bulbs, this dermis suspension was kept standing for 15 minutes to precipitate only the hair bulbs. The “standing to precipitation” procedure was repeated three times. The thus obtained hair bulbs were immersed in a solution preparing by dissolving 0.25% by mass of trypsin in 2.65 mM aqueous EDTA solution, and then treated at 37° C. for 5 minutes to prepare a dispersion solution of HBKs.
Next, this dispersion solution was centrifuged at 1000 rpm for 5 minutes. After this centrifugation, the supernatant was removed. The thus obtained HBKs were dispersed in a culture medium, then inoculated into a collagen-coated 96-well microplate, and cultured at 37° C. in an atmosphere containing 5% CO2.
(§3) A 1 mg portion of the pentapeptide obtained in Example 3 was added to 232.8 μl of a test medium and dissolved by stirring to prepare a 10 mM solution. Subsequently, this 10 mM solution was stepwise diluted to prepare 6 types of sample solutions each in a concentration of 100 μM (No. 1), 30 μM (No. 2), 10 μM (No. 3), 3 μM (No. 4), 1 (No. 5), and 0.3 μM (No. 6). Only a test medium was used as a control.
(§4) After 24 hours from the inoculation of the cells, the culture solutions were removed, and the cultured cells were washed with an MCDB153 solution. Each of the above mentioned sample solutions was added to the cultured cell at 100 μl/well and cultured at 37° C. in an atmosphere containing 5% CO2. After 4 days, AlamarBlue reagent (registered trademark, cat. No. DAL1100, lot No. AB083002, a product by Biosource International Inc.) was added at 10 μl/well, and the culture was continued at 37° C. in an atmosphere containing 5% CO2. After 2 hours, fluorescence intensity (excitation wavelength: 544 nm, measurement wavelength: 590 nm) was measured with a microplate reader (Model “Fluoroskan Ascent FL”, manufactured by Labsystems) to evaluate the number of cells. A significant difference test was performed by Dunnett's multiple comparison test (software “Super ANOVA V.1.11”, a product by Abacus Concepts).
(In general: Resazurin is reduced to fluorescent resorufin, in cell work by metabolically active cells.)

Another assay deals with epidermal cells. Description: Epidermal cell growth test (Example 7, AlamarBlue). The class given is cell-based, C3H/HeN mouse. As to conditions: for effect on the epidermal cells as compared with that of the control: 4 days culture.
Excerpt: as §1, §2
The above-mentioned epidermis tissues were immersed in a solution prepared by dissolving 0.25% by mass of trypsin in 2.65 mM aqueous EDTA solution, and then treated at 37° C. for 5 minutes to prepare a dispersion solution of epidermal cells.
Subsequently, this dispersion solution was centrifuged at 1000 rpm for 5 minutes, and the supernatant was removed. The thus obtained epidermal cells were dispersed in a culture medium, then inoculated into a collagen-coated 96-well microplate, and cultured at 37° C. in an atmosphere containing 5% CO2.
as §3, §4

The next assay deals with dermal fibroblasts. Description: Dermal fibroblast growth test (Example 7, AlamarBlue). The class given is cell-based, C3H/HeN mouse. Conditions: 0.3-100 μM, 3 days culture.
Excerpt: as §1
The skin of a 5 day-old C3H/HeN mouse was aseptically collected and cut with a surgical knife into samples of strips of approximately 2-mm-wide skin slices. The above-mentioned samples were immersed in a solution prepared by dissolving 500 U/ml of dispase (lot No. 0101, a product by GODO SHUSEI CO.) in DMEM (product code “D-5523”, a product by Sigma) containing 5% by mass of FBS (lot No. 0101, a product by Cansera International Inc.), and then kept standing at 4° C. for 16 hours. Subsequently, epidermis tissues were ablated with tweezers from the skin slices and separated from dermis tissues. […]
(§5) After 24 hours from the inoculation of the cells, the culture solutions were removed, and the cultured cells were washed with a DMEM solution. […] After 2 hours, fluorescence intensity (excitation wavelength: 544 nm, measurement wavelength: 590 nm) was measured with a microplate reader (Model “Fluoroskan Ascent FL”, manufactured by Labsystems) to evaluate the number of cells.

A further assay relates to human hair papilla cells. Description: Hair papilla cell growth test (Example 7, AlamarBlue). Type of assay: cell-based. As to conditions: 0.3-100 μM, 3 days culture.
Excerpt: as §1
Moreover, human hair papilla cells (product code “602-05”, a product by TOYOBO CO.) were dispersed in a culture medium, then inoculated into a collagen-coated 96-well microplate, and cultured at 37° C. in an atmosphere containing 5% CO2.
A 1 mg portion of the pentapeptide obtained in Example 3 was added to 232.8 μl of a test medium and dissolved by stirring to prepare a 10 mM solution. Subsequently, this 10 mM solution was stepwise diluted to prepare 6 types of sample solutions each in a concentration of 100 μM (No. 1), 30 μM (No. 2), 10 μM (No. 3), 3 μM (No. 4), 1 (No. 5), and 0.3 μM (No. 6). […]
as §5

Turning to `CC[C@H](C)[C@H](NC(=O)[C@@H]1CCCN1C(=O)CN)C(=O)NCC(=O)N[C@@H](CO)C(=O)O` (racemic) [Example 3, glycyl-prolyl-isoleucyl-glycyl-serine], the “hair growth promotion observed in pictures of the shaved areas” value in the assay on C3H/He female mice (compared with control group) is “evident hair growth promotion”. Also, the “ratio of the hair-regrowth area” value in the assay with C3H/He female mice (n=5, control 36.9±5.7%, p<0.01) is 66.6±3.5%. Moreover, the “effect on the HBK growth as compared with that of the control” value in the assay with HBKs (0.3 μM (No. 6)) stood at 101%; in the assay on HBKs (1 μM (No. 5)), 111%; in the assay with HBKs (3 μM (No. 4)) it was 124%; in the assay on HBKs (10 μM (No. 3)) it was 141%; in the assay with HBKs (30 μM (No. 2)), 142%; in the assay on HBKs (100 μM (No. 1)), 141%. The “concentration at which significant difference from control could be noted” value is at least 1 µM in the assay on HBKs (HBKs, p<0.01, Dunnett's test) and at least 1 µM in the assay with epidermal cells (epidermal cells, 1 μM: p<0.05, 3 μM or higher: p<0.01). The “effect on the epidermal cells as compared with that of the control” value is given as 102% with epidermal cells (0.3 μM (No. 6)); 110% in the assay with epidermal cells (1 μM (No. 5)); 118% in the assay on epidermal cells (3 μM (No. 4)); 124% in the assay on epidermal cells (10 μM (No. 3)); 127% in the assay with epidermal cells (30 μM (No. 2)); 127% with epidermal cells (100 μM (No. 1)). Also, the “influence on dermal fibroblast growth” value in the assay with dermal fibroblasts is on record as “no influence”. Besides, the “influence on hair papilla cell growth” value in the assay with human hair papilla cells is given as “no influence”.
